Data: patent publication US7998989B2, “2-Imino-1,3-thiazoline-based compounds and T-type calcium channel inhibitors containing the same” (Korea Institute of Science and Technology, priority 2007, dated 2011)
Read-outs that look alike come from different tables or passages of the source.

Assays:
[1] = molecular target: T1, α1G T-type calcium channel (Homo sapiens, UniProt O43497); experiment: Assay for % inhibiting activity against T-type calcium channel using FDSS6000 (fluo-3 calcium imaging, KCl activation); type: cell-based
T1 construct: host or cells: HEK293
Method in brief: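 HEK293 cells stably expressing α1G and Kir2.1 loaded with 5 μM fluo-3/AM, then in HEPES buffer (pH 7.4) with 10 mM CaCl2. Compound applied 75 s before 75 mM KCl; intracellular Ca2+ read as […] area, % inhibition relative to untreated control.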

[2] = HEK293, 10 μM, HEK293 cells stably expressing α1G T-type calcium channel and Kir2.1, compounds of the examples, read-out: FDSS (% inhibition)/10uM
[3] = 10 μM, FDSS (% inhibition), comparative compounds where R6 is a phenyl group, read-out: FDSS

T1 sequence (O43497 whole entry): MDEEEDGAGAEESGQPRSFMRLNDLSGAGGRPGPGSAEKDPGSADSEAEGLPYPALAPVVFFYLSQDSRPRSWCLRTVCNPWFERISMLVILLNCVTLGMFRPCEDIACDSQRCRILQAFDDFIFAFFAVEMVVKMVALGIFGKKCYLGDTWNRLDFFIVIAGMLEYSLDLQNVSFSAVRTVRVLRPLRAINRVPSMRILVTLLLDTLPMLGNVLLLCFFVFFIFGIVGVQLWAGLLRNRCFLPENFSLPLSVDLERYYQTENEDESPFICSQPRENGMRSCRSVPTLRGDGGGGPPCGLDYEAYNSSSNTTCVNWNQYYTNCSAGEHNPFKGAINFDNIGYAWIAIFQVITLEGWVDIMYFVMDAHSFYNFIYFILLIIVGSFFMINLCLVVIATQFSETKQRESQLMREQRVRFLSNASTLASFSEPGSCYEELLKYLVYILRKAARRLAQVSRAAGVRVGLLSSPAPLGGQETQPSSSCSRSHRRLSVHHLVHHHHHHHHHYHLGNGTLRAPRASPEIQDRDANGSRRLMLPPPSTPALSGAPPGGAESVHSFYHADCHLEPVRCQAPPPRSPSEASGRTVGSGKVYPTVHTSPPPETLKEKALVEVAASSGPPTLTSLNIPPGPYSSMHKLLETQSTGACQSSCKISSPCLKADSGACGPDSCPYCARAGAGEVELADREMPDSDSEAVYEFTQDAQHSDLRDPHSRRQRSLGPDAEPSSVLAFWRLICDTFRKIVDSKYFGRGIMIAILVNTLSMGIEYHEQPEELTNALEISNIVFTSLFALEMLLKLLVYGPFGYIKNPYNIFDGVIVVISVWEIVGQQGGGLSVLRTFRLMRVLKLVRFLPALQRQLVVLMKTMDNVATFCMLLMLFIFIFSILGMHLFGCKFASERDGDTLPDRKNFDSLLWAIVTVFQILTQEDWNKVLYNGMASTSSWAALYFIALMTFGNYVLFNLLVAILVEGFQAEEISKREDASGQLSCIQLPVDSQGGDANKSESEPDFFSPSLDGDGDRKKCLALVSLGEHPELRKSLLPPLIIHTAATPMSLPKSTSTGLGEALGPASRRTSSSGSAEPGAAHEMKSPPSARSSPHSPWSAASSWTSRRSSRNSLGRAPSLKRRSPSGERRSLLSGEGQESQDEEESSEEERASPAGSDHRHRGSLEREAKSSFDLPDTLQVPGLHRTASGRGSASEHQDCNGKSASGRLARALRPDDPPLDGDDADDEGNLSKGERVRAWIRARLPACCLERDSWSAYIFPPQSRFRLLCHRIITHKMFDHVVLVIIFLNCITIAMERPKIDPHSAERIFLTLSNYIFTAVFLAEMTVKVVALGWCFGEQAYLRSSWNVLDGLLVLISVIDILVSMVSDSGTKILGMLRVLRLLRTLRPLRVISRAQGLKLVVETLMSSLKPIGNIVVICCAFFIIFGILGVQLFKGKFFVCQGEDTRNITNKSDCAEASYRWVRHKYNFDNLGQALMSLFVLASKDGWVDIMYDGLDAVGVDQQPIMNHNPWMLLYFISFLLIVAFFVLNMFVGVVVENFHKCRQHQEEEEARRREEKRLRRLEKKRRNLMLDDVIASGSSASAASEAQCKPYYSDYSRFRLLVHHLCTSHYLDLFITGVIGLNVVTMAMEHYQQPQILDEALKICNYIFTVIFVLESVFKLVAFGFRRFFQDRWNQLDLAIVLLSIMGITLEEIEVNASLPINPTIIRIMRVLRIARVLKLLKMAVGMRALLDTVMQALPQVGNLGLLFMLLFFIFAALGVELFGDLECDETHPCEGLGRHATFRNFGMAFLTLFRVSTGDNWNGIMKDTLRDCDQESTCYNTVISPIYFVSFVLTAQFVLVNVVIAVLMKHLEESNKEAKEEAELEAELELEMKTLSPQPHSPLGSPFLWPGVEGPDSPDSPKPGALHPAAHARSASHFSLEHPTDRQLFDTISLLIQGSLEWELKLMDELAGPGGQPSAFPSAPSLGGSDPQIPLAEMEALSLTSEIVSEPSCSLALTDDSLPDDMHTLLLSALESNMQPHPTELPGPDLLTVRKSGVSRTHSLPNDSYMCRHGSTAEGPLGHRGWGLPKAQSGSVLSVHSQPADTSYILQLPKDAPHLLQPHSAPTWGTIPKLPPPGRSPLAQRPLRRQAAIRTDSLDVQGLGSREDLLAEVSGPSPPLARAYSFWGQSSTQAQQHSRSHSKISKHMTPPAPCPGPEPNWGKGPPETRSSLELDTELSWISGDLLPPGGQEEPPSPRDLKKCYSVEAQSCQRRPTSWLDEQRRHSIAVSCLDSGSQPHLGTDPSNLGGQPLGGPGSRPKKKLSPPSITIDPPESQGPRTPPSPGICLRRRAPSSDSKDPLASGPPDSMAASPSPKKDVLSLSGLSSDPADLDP

melting point [°C] | inhibition at 10 µM [1, 2] [%] | inhibition at 10 µM [1, 3] [%] | FDSS (% inhibition)/10uM ([1]; 10 μM, HEK293 cells stably expressing α1G T-type calcium channel and Kir2.1, compounds of the examples) [%] | Structure (SMILES)
211.9 | 44.1 | – | – | CCN1C(=NC2CCCCC2)SCC1CC(=O)Nc1ccc(C)cc1.Cl (centres unmarked) [KHG24279, [2-cyclohexylimino-3-ethyl-1,3-thiazolidine-4-yl]-N-(4-methylphenyl)-acetamide hydrochloride]
238 to 242.8 | – | -2.56 | – | CC(C)c1ccc(NC(=O)CC2CSC(=Nc3ccc(C(F)(F)F)cc3)N2C)cc1.Cl (centres unmarked) [KHG21943, [2-(4-trifluoromethylphenylimino)-3-methyl-1,3-thiazolidine-4-yl]-N-(4-isopropylphenyl)-acetamide hydrochloride]
202.9 | 31.1 | – | – | CC(C)c1ccc(NC(=O)CC2CSC(=NC3CCCCC3)N2Cc2ccccc2)cc1.Cl (centres unmarked) [KHG24303, (2-cyclohexylimino-3-benzyl-1,3-thiazolidine-4-yl)-N-(4-isopropylphenyl)-acetamide hydrochloride]
191 | 54 | – | – | CCN1C(=NC2CCCCC2)SCC1CC(=O)Nc1ccc(C(F)(F)F)cc1.Cl (centres unmarked) [KHG24280, [2-cyclohexylimino-3-ethyl-1,3-thiazolidine-4-yl]-N-(4-trifluoromethylphenyl)-acetamide hydrochloride]
222 to 223 | – | 28.3 | – | CN1C(=Nc2ccc(-c3ccccc3)cc2)SCC1CC(=O)Nc1ccc(Cl)cc1F.Cl (centres unmarked) [KHG23073, [2-(4-phenylphenylimino)-3-methyl-1,3-thiazolidine-4-yl]-N-(4-chloro-2-fluorophenyl)-acetamide hydrochloride]
262 to 264 | 51.6 | – | – | CC1SC(=NC2CCCCC2)N(C)C1CC(=O)Nc1ccc(Cl)cc1 (centres unmarked) [KHG24480, (2-cyclohexylimino-3,5-dimethyl-1,3-thiazolidine-4-yl)-N-(4-chlorophenyl)-acetamide]
160.3 | 42.8 | – | – | CCN1C(=NC2CCCCC2)SCC1CC(=O)Nc1ccc(Oc2ccccc2)cc1.Cl (centres unmarked) [KHG24276, [2-cyclohexylimino-3-ethyl-1,3-thiazolidine-4-yl]-N-(4-phenoxyphenyl)-acetamide hydrochloride]
196.4 | 33.7 | – | – | CN1C(=NCCc2ccccc2)SCC1CC(=O)Nc1cc([N+](=O)[O-])ccc1F.Cl (centres unmarked) [KHG24232, (2-phenethylimino-3-methyl-1,3-thiazolidine-4-yl)-N-(2-fluoro-5-nitrophenyl)-acetamide hydrochloride]
238 to 242 | – | 2.59 | – | CN1C(=Nc2ccc(Oc3ccccc3)cc2)SCC1CC(=O)Nc1ccc(Cl)cc1.Cl (centres unmarked) [KHG21650, [2-(4-phenoxyphenylimino)-3-methyl-1,3-thiazolidine-4-yl]-N-(4-chlorophenyl)-acetamide hydrochloride]
180 to 182 | 36.7 | – | – | CN1C(=NC2CCCC2)SCC1CC(=O)NCc1ccc(Cl)cc1.Cl (centres unmarked) [KHG24157, (2-cyclopentylimino-3-methyl-1,3-thiazolidine-4-yl)-N-(4-chlorobenzyl)-acetamide hydrochloride]
215.2 | 52.1 | – | – | CCCCN1C(=NC2CCCCC2)SCC1CC(=O)Nc1ccc(Br)cc1.Cl (centres unmarked) [KHG24263, [2-cyclohexylimino-3-(n-butyl)-1,3-thiazolidine-4-yl]-N-(4-bromophenyl)-acetamide hydrochloride]
238 to 240 | 59.1 | – | – | CN1C(=NC23CC4CC(CC(C4)C2)C3)SCC1CC(=O)Nc1cc(Cl)cc(Cl)c1.Cl (centres unmarked) [KHG24417, [2-(1-adamantyl)imino-3-methyl-1,3-thiazolidine-4-yl]-N-(3,5-dichlorophenyl)-acetamide hydrochloride]
210 to 212 | 30.3 | – | – | Cc1ccc(NC(=O)CC2CSC(=NC3CCCCC3)N2C)cc1F.Cl (centres unmarked) [KHG24091, (2-cyclohexylimino-3-methyl-1,3-thiazolidine-4-yl)-N-(3-fluoro-4-methylphenyl)-acetamide hydrochloride]
233 to 234 | 32.1 | – | – | COc1ccc(NC(=O)CC2CSC(=NC3CCCCC3)N2C)cc1OC.Cl (centres unmarked) [KHG24090, (2-cyclohexylimino-3-methyl-1,3-thiazolidine-4-yl)-N-(3,4-dimethoxyphenyl)-acetamide hydrochloride]
201.4 | 63.2 | – | – | CCCCc1ccc(NC(=O)CC2CSC(=NC3CCCCC3)N2CCC)cc1.Cl (centres unmarked) [KHG24291, [2-cyclohexylimino-3-(n-propyl)-1,3-thiazolidine-4-yl]-N-(4-n-butylphenyl)-acetamide hydrochloride]
195.6 | 62.6 | – | – | CCCCc1ccc(NC(=O)CC2CSC(=NC3CCCCC3)N2C2CC2)cc1.Cl (centres unmarked) [KHG24270, [2-cyclohexylimino-3-cyclopropyl-1,3-thiazolidine-4-yl]-N-(4-n-butylphenyl)-acetamide hydrochloride]
213.3 | 31.4 | – | – | CCCCN1C(=NC2CCCCC2)SCC1CC(=O)Nc1ccc(Oc2ccccc2)cc1.Cl (centres unmarked) [KHG24281, [2-cyclohexylimino-3-(n-butyl)-1,3-thiazolidine-4-yl]-N-(4-phenoxyphenyl)-acetamide hydrochloride]

Continued, molecule first:

Structure (SMILES) | melting point [°C] | inhibition at 10 µM [1, 2] [%] | inhibition at 10 µM [1, 3] [%] | FDSS (% inhibition)/10uM ([1]; 10 μM, HEK293 cells stably expressing α1G T-type calcium channel and Kir2.1, compounds of the examples) [%]
CN1C(=NC2CCCCC2)SCC1CC(=O)NCc1ccc(Cl)c(Cl)c1.Cl (centres unmarked) [KHG24088, (2-cyclohexylimino-3-methyl-1,3-thiazolidine-4-yl)-N-(3,4-dichlorobenzyl)-acetamide hydrochloride] | 215 to 216 | 43.2 | – | –
CC(C)c1ccc(NC(=O)CC2C(C)SC(=NC3CCCCC3)N2C)cc1.Cl (centres unmarked) [KHG24526, (2-cyclohexylimino-3,5-dimethyl-1,3-thiazolidine-4-yl)-N-(4-isopropylphenyl)-acetamide hydrochloride] | 265 to 267 | 42.3 | – | –
CC(C)N1C(=NC23CC4CC(CC(C4)C2)C3)SCC1CC(=O)Nc1cc(Cl)ccc1F.Cl (centres unmarked) [KHG24835, [2-(1-adamantylimino)-3-isopropyl-1,3-thiazolidine-4-yl]-N-(5-chloro-2-fluorophenyl)-acetamide hydrochloride] | 116 | 55.2 | – | –
CC(C)c1ccc(NC(=O)CC2C(C)SC(=NC3CCCCCC3)N2C)cc1.Cl (centres unmarked) [KHG24519, (2-cycloheptylimino-3,5-dimethyl-1,3-thiazolidine-4-yl)-N-(4-isopropylphenyl)-acetamide hydrochloride] | 260 to 262 | 55.7 | – | –
CCN1C(=NC2CCCCC2)SCC1CC(=O)NCc1ccc(C)cc1.Cl (centres unmarked) [KHG24292, (2-cyclohexylimino-3-ethyl-1,3-thiazolidine-4-yl)-N-(4-methylbenzyl)-acetamide hydrochloride] | 172.6 | 43.9 | – | –
CC1SC(=NC2CCCCCC2)N(C)C1CC(=O)Nc1ccc(F)cc1.Cl (centres unmarked) [KHG24518, (2-cycloheptylimino-3,5-dimethyl-1,3-thiazolidine-4-yl)-N-(4-fluorophenyl)-acetamide hydrochloride] | 229 to 231 | 50.7 | – | –
CN1C(=NC2CCCCCC2)SCC1C(=O)NCc1cccc(F)c1.Cl (centres unmarked) [KHG24666, (2-cycloheptylimino-3-methyl-1,3-thiazolidine-4-yl)-N-(3-fluorobenzyl)-carboxamide hydrochloride] | 226.1 | 46.2 | – | –
CCCN1C(=NC2CCCCC2)SCC1CC(=O)NCc1ccc(C)cc1.Cl (centres unmarked) [KHG24293, [2-cyclohexylimino-3-(n-propyl)-1,3-thiazolidine-4-yl]-N-(4-methylbenzyl)-acetamide hydrochloride] | 189.5 to 191.2 | 55.8 | – | –
CCCN1C(=NC2CCCCC2)SCC1CC(=O)Nc1ccc(C)c(Cl)c1.Cl (centres unmarked) [KHG24405, (2-cyclohexylimino-3-(n-propyl)-1,3-thiazolidine-4-yl)-N-(3-chloro-4-methylphenyl)-acetamide hydrochloride] | 204.9 | 68.4 | – | –
CCCCc1ccc(NC(=O)CC2CSC(=NC3CCCCC3)N2CCCC)cc1.Cl (centres unmarked) [KHG24282, [2-cyclohexylimino-3-(n-butyl)-1,3-thiazolidine-4-yl]-N-(4-n-butylphenyl)-acetamide hydrochloride] | 209.1 | 43.6 | – | –
Cl.O=C(CC1CSC(=NC2CCCCC2)N1C1CC1)Nc1ccc(C(F)(F)F)cc1 (centres unmarked) [KHG24268, [2-cyclohexylimino-3-cyclopropyl-1,3-thiazolidine-4-yl]-N-(4-trifluoromethylphenyl)-acetamide hydrochloride] | 240.8 | 58.7 | – | –
CC1SC(=NC2CCCCCC2)N(C)C1CC(=O)Nc1ccccc1F.Cl (centres unmarked) [KHG24640, (2-cycloheptylimino-3,5-dimethyl-1,3-thiazolidine-4-yl)-N-(2-fluorophenyl)-acetamide hydrochloride] | 197 to 199 | 39.6 | – | –
CN1C(=NCC2CCCCC2)SCC1CC(=O)Nc1cc(C(F)(F)F)cc(C(F)(F)F)c1.Cl (centres unmarked) [KHG24218, (2-cyclohexylmethylimino-3-methyl-1,3-thiazolidine-4-yl)-N-(3,5-ditrifluoromethylphenyl)-acetamide hydrochloride] | 119.6 | 52.8 | – | –
CN1C(=NC2CCCCCC2)SCC1C(=O)Nc1cc(C(F)(F)F)cc(C(F)(F)F)c1.Cl (centres unmarked) [KHG24632, (2-cycloheptylimino-3-methyl-1,3-thiazolidine-4-yl)-N-(3,5-ditrifluoromethylphenyl)-carboxamide hydrochloride] | 202 | – | – | 57.06
